The target of one assay is T1, 5-lipoxygenase (Rattus norvegicus, UniProt P12527).
T1 construct: supernatant fraction of Rat Basophilic Leukemia Cell Homogenate (RBL-1) serves as a 5-lipoxygenase enzyme source; endogenous in cells; host or cells: RBL-1 (rat basophilic leukemia cells), 100,000×g supernatant of homogenate
T1 sequence (P12527 1-673): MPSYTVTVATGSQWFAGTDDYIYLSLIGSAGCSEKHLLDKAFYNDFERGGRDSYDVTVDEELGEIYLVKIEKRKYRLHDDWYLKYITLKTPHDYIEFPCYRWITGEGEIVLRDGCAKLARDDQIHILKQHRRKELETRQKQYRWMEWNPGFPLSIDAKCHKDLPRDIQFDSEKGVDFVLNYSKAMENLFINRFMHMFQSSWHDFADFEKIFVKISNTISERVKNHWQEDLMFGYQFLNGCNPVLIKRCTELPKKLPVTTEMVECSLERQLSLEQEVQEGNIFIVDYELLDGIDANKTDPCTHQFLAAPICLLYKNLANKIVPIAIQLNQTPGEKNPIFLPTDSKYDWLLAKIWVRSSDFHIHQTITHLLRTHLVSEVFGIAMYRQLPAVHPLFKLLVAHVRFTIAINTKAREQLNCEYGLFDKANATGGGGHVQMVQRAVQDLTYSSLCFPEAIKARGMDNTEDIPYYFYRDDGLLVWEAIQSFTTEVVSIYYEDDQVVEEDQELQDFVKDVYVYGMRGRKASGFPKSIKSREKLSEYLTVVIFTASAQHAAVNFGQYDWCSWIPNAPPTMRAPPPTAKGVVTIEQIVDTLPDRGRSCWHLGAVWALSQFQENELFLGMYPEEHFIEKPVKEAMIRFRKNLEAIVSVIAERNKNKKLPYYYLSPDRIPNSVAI
The assay can be described thus: Inhibition of 5-lipoxygenase, in vitro (5-HETE synthesis by RBL-1 homogenate 100,000×g supernatant). Type of assay: biochemical. The settings on record: RBL-1 homogenate supernatant, 5-HETE from [1-14C]-arachidonic acid with Ca++; read-out: Rat Basophilic Leukemia Cell- Inhibition IC50. On the procedure:
(1) Inhibition of 5-lipoxygenase, in vitro: anti-inflammatory, anti-allergyactivities.
The 100,000×g supernatant fraction of Rat Basophilic Leukemia Cell Homogenate (RBL-1) serves as a 5-lipoxygenase enzyme source. The enzyme is incubated with [1-^14 C]-arachidonic acid and Ca++ in the presence and absence of test compound. The product of 5-lipoxygenase, 5-hydroxyeicosatetraenoic acid (5-HETE), is separated by thin-layer chromatography and measured by radioactivity. A compound inhibiting 5-HETE synthesis by 30% or more is considered active at that concentration.

For assay [1], the system named is bronchoconstricting effects. Conditions: versus histamine; cited from earlier work.
The subject of assay [2] is SRS synthesis by Rat Basophilic Leukemia Cell (RBL-1) cells. Put plainly: Inhibition of slow reacting substance (SRS) biosynthesis in RBL-1 cells. The assay is classed as cell-based. Conditions: ionophore A23187, guinea pig ileum bioassay. On the procedure: (2) Inhibition of slow reacting substance (SRS) biosynthesis in cells.
SRS synthesis by Rat Basophilic Leukemia Cell (RBL-1) cells is induced by incubation of cells with ionophore A23187 alone and in combination with the test compound. The SRS released into the culture media is measured. The percent inhibition of SRS production is estimated by determining the doses of treated and control media needed in the tissue bath to produce equivalent contractions of segments of isolated guinea pig ileum.
Initial screening doses of test compounds are 1×10^-4 M and 1×10^-5 M.

The term IC50 denotes the point on the concentration scale where inhibition reaches its midpoint. One may read the inhibition as the share of the control response that was lost under treatment.

On to `NC(=O)CCc1ccc(-c2ccc(F)cc2)n1-c1cc(Cl)ccc1O` [Example 4, 1-(5-chloro-2-hydroxyphenyl)-5-(4-fluorophenyl)-1H-pyrrole-2-propanamide], for which the half-inhibitory concentration (IC50) on 5-lipoxygenase is 2.4 µM.

Take `CCCCC/C=C\C\C=C/C=C/C=C/[C@@H](SC[C@H](NC(=O)CC[C@H](N)C(=O)O)C(=O)NCC(=O)O)[C@@H](O)CCCC(=O)O` [LTC4]: the “potency relative to histamine in causing long lasting bronchoconstricting effects” value in assay [1] is listed as “at least 100 times”. As for `COc1ccc(-c2ccc(CCC(=O)O)n2-c2cc(Cl)ccc2O)cc1` [Example 7, 1-(5-chloro-2-hydroxyphenyl)-5-(4-methoxyphenyl)-1H-pyrrole-2-propanoic acid], the IC50 on 5-lipoxygenase came to 35 µM. As for `O=C(O)CCc1ccc(-c2ccc(F)cc2)n1-c1cc(Cl)ccc1O` [Example 1, 1-(5-chloro-2-hydroxyphenyl)-5-(4-fluorophenyl)-1H-pyrrole-2-propanoic acid], the inhibition at 5 µM in assay [2] stood at 82%. For the same compound, at 5-lipoxygenase, the IC50 was found to be 0.83 µM.

Regarding `O=C(O)CCc1ccc(-c2ccc(Cl)cc2)n1-c1cc(Cl)ccc1O` [Example 5, 1-(5-chloro-2-hydroxyphenyl)-5-(4-chlorophenyl)-1H-pyrrole-2-propanoic acid], on 5-lipoxygenase, the concentration for half-maximal inhibition (IC50) was determined as 10 µM.

The values are drawn from patent US4694018A, “Substituted 1,5-diphenyl-2-pyrrolepropionic acids and derivatives” (G. D. Serale & Co., priority 1985, dated 1987).
